# In ChEMBL document CHEMBL3994622, “Design and synthesis of new RAF kinase-inhibiting antiproliferative quinoline derivatives. Part 2: Diarylurea derivatives” (Eur J Med Chem, 2017):
# Tests used:
# SF-539 = experiment: Growth inhibition of human SF539 cells incubated for 48 hrs by sulforhodamine B assay; type: functional; conditions: SF-539, 48 h; for CC50: read-out: LC50 (the source's name)
# SNB-19 = experiment: Growth inhibition of human SNB19 cells incubated for 48 hrs by sulforhodamine B assay; type: functional; conditions: SNB-19, 48 h; for CC50: read-out: LC50 (the source's name)
# KM12 = experiment: Growth inhibition of human KM12 cells incubated for 48 hrs by sulforhodamine B assay; type: functional; conditions: KM12, 48 h; for CC50: read-out: LC50 (the source's name)
# SF-295 = experiment: Growth inhibition of human SF295 cells incubated for 48 hrs by sulforhodamine B assay; type: functional; conditions: SF-295, 48 h; for CC50: read-out: LC50 (the source's name)
# HCC 2998 = experiment: Growth inhibition of human HCC2998 cells incubated for 48 hrs by sulforhodamine B assay; type: functional; conditions: HCC 2998, 48 h; for CC50: read-out: LC50 (the source's name)
# OVCAR-3 = experiment: Growth inhibition of human OVCAR3 cells assessed as cell growth at 0.01 uM incubated for 48 hrs by sulforhodamine B assay relative to control; type: functional; conditions: OVCAR-3, 48 h, read-out: Activity
# CAKI-1 = experiment: Growth inhibition of human Caki1 cells incubated for 48 hrs by sulforhodamine B assay; type: functional; conditions: CAKI-1, 48 h; for CC50: read-out: LC50 (the source's name)
# TK-10 = experiment: Growth inhibition of human TK10 cells incubated for 48 hrs by sulforhodamine B assay; type: functional; conditions: TK-10, 48 h; for CC50: read-out: LC50 (the source's name)
# HT-29 [1] = experiment: Growth inhibition of human HT-29 cells assessed as cell growth at 100 uM incubated for 48 hrs by sulforhodamine B assay relative to control; type: functional; conditions: HT-29, 48 h, read-out: Activity
# UO-31 = experiment: Growth inhibition of human UO31 cells incubated for 48 hrs by sulforhodamine B assay; type: functional; conditions: UO-31, 48 h; for CC50: read-out: LC50 (the source's name)
# SK-MEL-5 = experiment: Growth inhibition of human SK-MEL-5 cells assessed as cell growth at 100 uM incubated for 48 hrs by sulforhodamine B assay relative to control; type: functional; conditions: SK-MEL-5, 48 h, read-out: Activity
# Hs-578T = experiment: Growth inhibition of human Hs 578T cells incubated for 48 hrs by sulforhodamine B assay; type: functional; conditions: for CC50: read-out: LC50 (the source's name)
# HT-29 [2] = experiment: Growth inhibition of human HT-29 cells assessed as cell growth at 0.1 uM incubated for 48 hrs by sulforhodamine B assay relative to control; type: functional; conditions: HT-29, 48 h, read-out: Activity
# OVCAR-4 = experiment: Growth inhibition of human OVCAR4 cells incubated for 48 hrs by sulforhodamine B assay; type: functional; conditions: OVCAR-4, 48 h; for CC50: read-out: LC50 (the source's name)
# MDA-MB-231 = experiment: Growth inhibition of human MDA-MB-231 cells incubated for 48 hrs by sulforhodamine B assay; type: functional; conditions: MDA-MB-231, 48 h; for CC50: read-out: LC50 (the source's name)
# 786-0 [3] = experiment: Growth inhibition of human 786-0 cells incubated for 48 hrs by sulforhodamine B assay; type: functional; conditions: 786-0, 48 h; for CC50: read-out: LC50 (the source's name)
# [4] = molecular target: RAF proto-oncogene serine/threonine-protein kinase (Homo sapiens, UniProt P04049); experiment: Inhibition of human c-RAF using MEK1 as substrate in presence of [33P]ATP by Hotspot assay
# Sequence of RAF proto-oncogene serine/threonine-protein kinase (P04049 whole entry): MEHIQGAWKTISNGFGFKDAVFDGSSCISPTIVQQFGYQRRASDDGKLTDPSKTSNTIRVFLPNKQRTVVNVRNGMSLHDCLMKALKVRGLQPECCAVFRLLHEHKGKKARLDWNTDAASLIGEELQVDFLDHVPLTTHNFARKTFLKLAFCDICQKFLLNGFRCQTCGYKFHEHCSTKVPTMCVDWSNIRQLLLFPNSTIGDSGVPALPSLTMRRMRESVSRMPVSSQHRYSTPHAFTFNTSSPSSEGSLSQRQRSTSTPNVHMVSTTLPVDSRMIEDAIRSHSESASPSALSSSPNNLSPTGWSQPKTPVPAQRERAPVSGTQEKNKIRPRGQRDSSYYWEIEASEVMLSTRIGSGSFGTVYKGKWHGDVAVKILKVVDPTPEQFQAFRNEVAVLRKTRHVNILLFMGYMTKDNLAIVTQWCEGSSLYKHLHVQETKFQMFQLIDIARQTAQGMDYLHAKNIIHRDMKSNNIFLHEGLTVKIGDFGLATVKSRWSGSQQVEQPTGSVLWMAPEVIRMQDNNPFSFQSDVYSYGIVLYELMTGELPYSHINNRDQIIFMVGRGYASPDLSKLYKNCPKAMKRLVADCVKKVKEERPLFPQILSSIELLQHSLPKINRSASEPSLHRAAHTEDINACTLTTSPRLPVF
# BT-549 = experiment: Growth inhibition of human BT549 cells assessed as cell growth at 100 uM incubated for 48 hrs by sulforhodamine B assay relative to control; type: functional; conditions: BT-549, 48 h, read-out: Activity
# HL-60(TB) = experiment: Growth inhibition of human HL-60(TB) cells incubated for 48 hrs by sulforhodamine B assay; type: functional; conditions: HL-60, 48 h; for CC50: read-out: LC50 (the source's name)
# SR = experiment: Growth inhibition of human SR cells assessed as cell growth at 0.1 uM incubated for 48 hrs by sulforhodamine B assay relative to control; type: functional; conditions: read-out: Activity
# M14 = experiment: Growth inhibition of human M14 cells incubated for 48 hrs by sulforhodamine B assay; type: functional; conditions: M14, 48 h; for CC50: read-out: LC50 (the source's name)
# 786-0 [5] = experiment: Growth inhibition of human 786-0 cells assessed as cell growth at 10 uM incubated for 48 hrs by sulforhodamine B assay relative to control; type: functional; conditions: 786-0, 48 h, read-out: Activity
# EKVX = experiment: Growth inhibition of human EKVX cells incubated for 48 hrs by sulforhodamine B assay; type: functional
# LOX IMVI = experiment: Growth inhibition of human LOXIMVI cells incubated for 48 hrs by sulforhodamine B assay; type: functional; conditions: for CC50: read-out: LC50 (the source's name)
# NCI-H322M = experiment: Growth inhibition of human NCI-H322M cells assessed as cell growth at 1 uM incubated for 48 hrs by sulforhodamine B assay relative to control; type: functional; conditions: read-out: Activity
# COLO 205 = experiment: Growth inhibition of human COLO205 cells incubated for 48 hrs by sulforhodamine B assay; type: functional; conditions: COLO 205, 48 h; for CC50: read-out: LC50 (the source's name)
# HT-29 [6] = experiment: Growth inhibition of human HT-29 cells incubated for 48 hrs by sulforhodamine B assay; type: functional; conditions: HT-29, 48 h; for CC50: read-out: LC50 (the source's name)
# SW-620 = experiment: Growth inhibition of human SW620 cells incubated for 48 hrs by sulforhodamine B assay; type: functional; conditions: SW-620, 48 h
# UACC-257 = experiment: Growth inhibition of human UACC257 cells incubated for 48 hrs by sulforhodamine B assay; type: functional; conditions: UACC-257, 48 h; for CC50: read-out: LC50 (the source's name)
# PC-3 = experiment: Growth inhibition of human PC3 cells assessed as cell growth at 0.1 uM incubated for 48 hrs by sulforhodamine B assay relative to control; type: functional; conditions: PC-3, 48 h, read-out: Activity
smiles,measurement,setting,value
COc1cc2cc(Oc3ccc(NC(=O)Nc4ccc(Cl)c(Cl)c4)cc3)c(C)nc2cc1OC,GI50,SF-539,5.18 µM
same,TGI,SF-539,22.3 µM
same,CC50,SF-539,88.8 µM
same,GI50,SNB-19,4.26 µM
same,TGI,SNB-19,24 µM
same,CC50,SNB-19,> 100 µM
same,GI50,KM12,3.22 µM
same,TGI,KM12,13.4 µM
same,CC50,KM12,74.7 µM
same,GI50,SF-295,1.96 µM
same,TGI,SF-295,6.08 µM
same,CC50,SF-295,67.7 µM
same,GI50,HCC 2998,5.54 µM
same,TGI,HCC 2998,> 100 µM
same,CC50,HCC 2998,> 100 µM
same,growth at 0.01 µM,OVCAR-3,109%
same,GI50,CAKI-1,2.12 µM
same,TGI,CAKI-1,6.65 µM
same,CC50,CAKI-1,49.5 µM
same,GI50,TK-10,3.46 µM
same,TGI,TK-10,9.18 µM
same,CC50,TK-10,43.3 µM
same,growth at 100 µM,HT-29 [1],-100%
same,GI50,UO-31,3.44 µM
same,TGI,UO-31,12.6 µM
same,CC50,UO-31,79.6 µM
same,growth at 100 µM,SK-MEL-5,-93%
same,GI50,Hs-578T,3.53 µM
same,TGI,Hs-578T,9.68 µM
same,CC50,Hs-578T,> 100 µM
same,growth at 0.1 µM,HT-29 [2],110%
same,GI50,OVCAR-4,2.67 µM
same,TGI,OVCAR-4,8.3 µM
same,CC50,OVCAR-4,35.2 µM
same,GI50,MDA-MB-231,2.46 µM
same,TGI,MDA-MB-231,12 µM
same,CC50,MDA-MB-231,34.6 µM
same,GI50,786-0 [3],3.64 µM
same,TGI,786-0 [3],17.7 µM
same,CC50,786-0 [3],65.2 µM
same,IC50,[4],0.22 µM
same,growth at 100 µM,BT-549,-72%
same,GI50,HL-60(TB),2.76 µM
same,TGI,HL-60(TB),6.75 µM
same,CC50,HL-60(TB),> 100 µM
same,growth at 0.1 µM,SR,108%
same,GI50,M14,2.56 µM
same,TGI,M14,10.5 µM
same,CC50,M14,34.7 µM
same,growth at 10 µM,786-0 [5],22%
same,GI50,EKVX,2.36 µM
same,LC50 (concentration killing 50% of cells),EKVX,> 100 µM
same,TGI,EKVX,9.51 µM
same,GI50,LOX IMVI,3.45 µM
same,TGI,LOX IMVI,14.6 µM
same,CC50,LOX IMVI,38.2 µM
same,growth at 1 µM,NCI-H322M,102%
same,GI50,COLO 205,2.75 µM
same,TGI,COLO 205,6.5 µM
same,CC50,COLO 205,21.5 µM
same,GI50,HT-29 [6],2.34 µM
same,TGI,HT-29 [6],4.89 µM
same,CC50,HT-29 [6],10.6 µM
same,GI50,SW-620,4.24 µM
same,LC50,SW-620,60.9 µM
same,TGI,SW-620,15.6 µM
same,GI50,UACC-257,2.31 µM
same,TGI,UACC-257,6.28 µM
same,CC50,UACC-257,24.4 µM
same,growth at 0.1 µM,PC-3,95%
COc1cc2cc(Oc3ccc(NC(=O)Nc4cc(C(F)(F)F)cc(C(F)(F)F)c4)cc3)c(C)nc2cc1OC,GI50,SF-539,1.45 µM
same,TGI,SF-539,3.21 µM
same,CC50,SF-539,7.11 µM
same,GI50,SNB-19,0.65 to 0.654 µM
same,TGI,SNB-19,2.16 µM
same,CC50,SNB-19,5.73 µM
same,GI50,KM12,0.918 to 0.92 µM
same,TGI,KM12,2.46 µM
same,CC50,KM12,6.27 µM
same,GI50,SF-295,0.48 to 0.481 µM
same,TGI,SF-295,1.94 µM
same,CC50,SF-295,5.71 µM
same,GI50,HCC 2998,1.53 µM
same,TGI,HCC 2998,3.15 µM
same,CC50,HCC 2998,6.49 µM
same,growth at 0.01 µM,OVCAR-3,104%
same,GI50,CAKI-1,1.41 µM
same,TGI,CAKI-1,5.1 µM
same,CC50,CAKI-1,15.3 µM
same,GI50,TK-10,2.32 µM
same,TGI,TK-10,9.18 µM
same,CC50,TK-10,5.99 µM
same,growth at 100 µM,HT-29 [1],-90%
same,GI50,UO-31,0.266 to 0.27 µM
same,TGI,UO-31,1.65 µM
same,CC50,UO-31,35.1 µM
same,growth at 100 µM,SK-MEL-5,-93%
same,GI50,Hs-578T,2.65 µM
same,TGI,Hs-578T,6.94 µM
same,CC50,Hs-578T,8.07 µM
same,growth at 0.1 µM,HT-29 [2],97%
same,GI50,OVCAR-4,1.22 µM
same,TGI,OVCAR-4,4.44 µM
same,CC50,OVCAR-4,80.2 µM
same,GI50,MDA-MB-231,1.08 µM
same,TGI,MDA-MB-231,2.49 µM
same,CC50,MDA-MB-231,> 100 µM
same,GI50,786-0 [3],1.61 µM
same,TGI,786-0 [3],3.09 µM
same,CC50,786-0 [3],13.8 µM
same,IC50,[4],0.37 µM
same,growth at 100 µM,BT-549,-61%
same,GI50,HL-60(TB),1.58 µM
same,TGI,HL-60(TB),4.37 µM
same,CC50,HL-60(TB),41.8 µM
same,growth at 0.1 µM,SR,97%
same,GI50,M14,1 µM
same,TGI,M14,2.88 µM
same,CC50,M14,8.25 µM
same,growth at 10 µM,786-0 [5],-90%
same,GI50,EKVX,1 µM
same,LC50 (concentration killing 50% of cells),EKVX,8.88 µM
same,TGI,EKVX,2.98 µM
same,GI50,LOX IMVI,1.44 µM
same,TGI,LOX IMVI,2.96 µM
same,CC50,LOX IMVI,6.12 µM
same,growth at 1 µM,NCI-H322M,59%
same,GI50,COLO 205,1.79 µM
same,TGI,COLO 205,3.58 µM
same,CC50,COLO 205,7.18 µM
same,GI50,HT-29 [6],1.52 µM
same,TGI,HT-29 [6],3.46 µM
same,CC50,HT-29 [6],7.91 µM
same,GI50,SW-620,1.94 µM
same,LC50,SW-620,39.3 µM
same,TGI,SW-620,5.71 µM
same,GI50,UACC-257,2.48 µM
same,TGI,UACC-257,5.49 µM
same,CC50,UACC-257,20 µM
same,growth at 0.1 µM,PC-3,89%
